Assay results reported in patent publication US20240228491A1, “METHIONINE ADENOSYLTRANSFERASE INHIBITOR, PREPARATION METHOD THEREFOR AND APPLICATION THEREOF” (SCINNOHUB PHARMACEUTICAL CO., LTD., priority 2021, published 2024).

Tests used:
[1] = molecular target: MAT2a (Homo sapiens (Human), UniProt P31153); experiment: MAT2a enzymatic activity test (colorimetric assay); format: biochemical; conditions: OD620, 150 min reaction, read-out: IC50 against MAT2a
Description: The Colorimetric assay method was used to detect the IC50 value of the tested compounds on MAT2a.
The specific steps were as follows: The compounds having the test starling concentration of 1 μM or 10 μM were diluted into 10 concentration points in a 3-fold gradient. 250 nL of the solutions of the compounds to be tested with 10 different concentrations were taken and added into a 384 well plate for later use. 20 μg/mL of MAT2a enzyme solution was prepared with Assay buffer (50 mM Tris, 50 mM KCl, 10 mM MgCl2, 0.05% polyoxyethylene lauryl ether, pH 8.0). 15 μL of the MAT2a enzyme solution at 20 μg/mL was add into the wells of the compounds to be tested at different concentrations; and 15 μL of Assay buffer was added into the negative control well. An incubation was carried out for 15 minutes after shaking for mixing well. A mixed substrate solution (comprising 400 μM ATP and 600 μM L-Methionine) was prepared with Assay buffer. 10 μL of the mixed substrate solution was added to the positive control well, the compound to be tested well, and the negative control well, respectively, and the reaction began, for a reaction time of 150 min. Then, 50 μL of the reaction stop solution (BIOMOL Green™ Reagent Enzo lifesciences, Cargo No. BML-AK111-1000) was added to stop the reaction, followed by being centrifuged at 1000 rpm for 60 s and then being incubated for 15 min. OD620 was read and data were processed.
By using the log value of the concentration as the X-axis and the inhibition % as the Y-axis, the IC50 value of each compound against enzyme activity was obtained through employing the log(inhibitor) vs. response-Variable slope fitting dose-effect curve of the analysis software GraphPad Prism 5.

[2] = test system: KP-4 cells; experiment: Inhibitory activity test of KP-4 cells; format: cell-based; conditions: Homo sapiens, 144 h incubation, read-out: KP-4 cell inhibitory activity IC50
Description: On day 1, cell seeding: after digestion of the cells with trypsin, the cells were resuspended to 1*10^4/mL with RPMI1640 complete medium (HyClone Company, Cat. No. SH30809.01) supplemented with 10% FBS (Gibco, 10099141C), mixed evenly, and added into the 96-well plate at 100 μL/well. The plate was put back to the incubator for the adherent growth of cells. On day 2, the addition of the compounds to be tested: 100 μL of the complete medium containing the compounds (the concentration of the compound in the medium was formulated as follows: 3-fold gradient dilution from 60 μM, 10 concentration gradients in total) was added, incubated for 144 hours at 37° C., 5% CO2. On day 8, the cell culture plates were taken out from incubator and equilibrated to room temperature, excess medium was pipetted from the wells so that 50 μL of supernatant was retained, and 50 μL of CellCounting-Lite 2.0 (Nanjing Vazyme Biotech Co., Ltd., Cat. No. DD1101) reagent was added per well, and the cells were fully lysed by shaking at room temperature for 10 min, and incubated for 5 min to detect the fluorescence intensity.
(§1) % Inhibition=100−(signal of the well with the compound to be tested−signal of the well with only medium and free of cells)/(signal of the well with cells but without addition of the compound−signal of the well with only medium and free of cells)×100.
(§2) The log value of concentration was used as the X-axis and % Inhibition was used as the Y-axis, so as to fit the dose-effect curve and calculate the IC50 value using nonlinear regression (dose response−variable slope) in the analysis software GraphPad Prism 8.

[3] = test system: HCT116 MTAP-/- cells; experiment: Activity test of HCT116 MTAP gene homozygous deletion cells (CellTiter-Glo); format: cell-based; conditions: Homo sapiens, HCT-116, 120 h incubation, read-out: HCT116 MTAP-/- Cell IC50
Description: On day 1, cell seeding: after digestion of the cells with trypsin, the cells were resuspended to the desired density with the complete medium (RPMI-1640 supplemented with 10% FBS; the brand of FBS is EXCELL, Cat. No. FND500; the brand of RPMI-1640 is ATCC, Cat. No. 30-2001), mixed evenly, and added into the 96-well plate at 100 μL/well with a cell density of 1000-3000 cells per well. The plate was put back to the incubator for the adherent growth of cells. On day 2, the addition of the compounds to be tested: before the addition of the compounds, the cells were starved with serum-free medium for 4 h, then the complete medium containing the corresponding concentration of compounds was added thereto, and the cells were incubated at 37° C., 5% CO2 for 120 h. On day 7, the cell culture plates were taken out from incubator and equilibrated to room temperature. 50 μL of CellTiter-Glo (Promega Company, Cat. No. G7571) reagent was added per well, and the cells were fully lysed by shaking at room temperature for 2 min, and then incubated for another 60 min to detect the fluorescence intensity. Calculation formula:
as §1
The fitting dose-effect curve of the analysis software GraphPad Prism 5 was used to give IC50 values of the individual compounds against cellular activity.

[4] = test system: DOHH-2 cells; experiment: Inhibitory activity test of DOHH-2 cells; format: cell-based; conditions: Homo sapiens, 120 h incubation, CellTiter-Glo, read-out: DOHH-2 cell inhibitory activity IC50
Description: On day 1, cell seeding: cells were resuspended to the desired density with DMEM complete medium (Gibico, Cat. No. 10569010) supplemented with 10% FBS (Gibco, 10099141C), mixed evenly, and added into the 384-well plate at 30 μL/well with a cell density of 800/well. The compounds to be tested were added as follows: 30 nL of DMSO solution containing the compound (the concentration of the compound in which was formulated as: 3-fold gradient dilution from 10 mM, 10 concentration points in total) was added, incubated for 120 h at 37° C., 5% CO2. On day 6, the cells treated with compounds were removed and equilibrated to room temperature, 30 μL of CellTiter-Glo (Promega company, Cat. No. G7573) reagent was added per well, and the cells were fully lysed by shaking at room temperature, and then incubated in dark at 37° C., 5% CO2 for 30 min, to detect the fluorescence intensity.
% Inhibition=100−(signal of the well with the compound to be tested−signal of the well with only medium and free of cells)/(signal of the well with cells but without the addition of the compound−signal of the well with only medium and free of cells)×100.
as §2

Chain of MAT2a (P31153 whole entry): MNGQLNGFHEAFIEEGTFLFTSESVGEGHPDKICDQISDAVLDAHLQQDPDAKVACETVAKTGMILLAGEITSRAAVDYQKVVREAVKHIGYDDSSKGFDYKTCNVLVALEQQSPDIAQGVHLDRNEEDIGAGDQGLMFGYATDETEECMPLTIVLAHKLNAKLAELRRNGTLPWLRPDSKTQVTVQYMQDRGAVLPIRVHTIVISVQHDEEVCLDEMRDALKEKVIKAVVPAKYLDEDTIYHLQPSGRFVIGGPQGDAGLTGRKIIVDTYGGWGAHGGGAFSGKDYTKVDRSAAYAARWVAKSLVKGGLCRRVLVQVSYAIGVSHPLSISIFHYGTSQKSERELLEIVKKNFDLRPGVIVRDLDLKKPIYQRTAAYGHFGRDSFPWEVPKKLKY

Row | SMILES | IC50 [1] [nM] | IC50 [2] [nM] | IC50 [3] [nM] | IC50 [4] [nM]
1 | Nc1c(-n2cccc2)c(=O)n(-c2ccc(Cl)cc2)c2nc(C(F)(F)F)ccc12 [Example 3, 4-amino-1-(4-chlorophenyl)-3-(1H-pyrrol-1-yl)-7-(trifluoromethyl)-1,8-naphthyridin-2(1H)-one] | 12.7 | 170 | 12.7 | –
2 | CNc1c(-n2cccn2)c(=O)n(-c2ccccc2)c2nc(C(F)(F)F)ccc12 [Example 15, 4-(methylamino)-1-phenyl-3-(1H-pyrazol-1-yl)-7-(trifluoromethyl)-1,8-naphthyridin-2(1H)-one] | 23.2 | 9730 | 345 | –
3 | Nc1c(-c2ccc3c(c2)OCO3)c(=O)n(-c2ccc(Cl)cc2)c2nc(C(F)(F)F)ccc12 [Example 19] | 12.3 | 890 | 13.1 | –
4 | COc1ccc(-c2c(N)c3ccc(C(F)(F)F)nc3n(-c3ccc(Cl)cc3)c2=O)cn1 [Example 20] | 11.5 | 650 | 24.5 | 48
5 | Nc1c(-c2ccc3ncsc3c2)c(=O)n(-c2ccc(Cl)cc2)c2nc(C(F)(F)F)ccc12 [Example 21] | 16.2 | 270 | 22.9 | 507
6 | Nc1c(-c2ccc3ncoc3c2)c(=O)n(-c2ccc(Cl)cc2)c2nc(C(F)(F)F)ccc12 [Example 22] | 15 | 730 | 20.9 | –
7 | Cn1cnc2ccc(-c3c(N)c4ccc(C(F)(F)F)nc4n(-c4ccc(Cl)cc4)c3=O)cc21 [Example 23] | 16.5 | 610 | 23 | –
8 | COc1ccc(-c2c(N)c3ccc(C(F)(F)F)nc3n(-c3ccc(Cl)cc3)c2=O)cc1 [Example 24] | 15.6 | 100 | 11.5 | –
9 | Cn1cc2cc(-c3c(N)c4ccc(C(F)(F)F)nc4n(-c4ccc(Cl)cc4)c3=O)ccc2n1 [Example 25] | 13.3 | 1220 | 13 | 507
10 | CNc1c(-c2ccc(F)cc2)c(=O)n(-c2ccccc2)c2nc(C(F)(F)F)ccc12 [Example 26] | 17.8 | 10200 | 617 | –
11 | CNc1c(-c2ccc3ncn(C)c3c2)c(=O)n(-c2ccccc2)c2nc(C(F)(F)F)ccc12 [Example 27] | 17.5 | 1620 | 231 | –
12 | Nc1c(-c2ccco2)c(=O)n(-c2ccc(Cl)cc2)c2nc(C(F)(F)F)ccc12 [Example 30, 4-amino-1-(4-chlorophenyl)-3-(furan-2-yl)-7-(trifluoromethyl)-1,8-naphthyridin-2(1H)-one] | 13.4 | 550 | 22.3 | –
13 | Cc1ccc(-n2c(=O)c(-c3ccco3)c(N)c3ccc(C(F)(F)F)nc32)cc1 [Example 31] | 15.4 | – | 13.4 | 430
14 | Nc1c(-n2cccn2)c(=O)n(-c2ccc(Cl)cc2)c2nc(C(F)(F)F)ccc12 [Example 38] | 18.1 | 910 | – | –
15 | Nc1c(-c2ccncn2)c(=O)n(-c2ccc(Cl)cc2)c2nc(C(F)(F)F)ccc12 [Example 39] | 19.8 | 410 | – | –
16 | Nc1c(-n2cncn2)c(=O)n(-c2ccc(Cl)cc2)c2nc(C(F)(F)F)ccc12 [Example 41] | 18.4 | 3080 | – | –

Row | SMILES | IC50 [1] [nM] | IC50 [2] [nM] | IC50 [3] [nM] | IC50 [4] [nM]
17 | Nc1c(-c2ccc(F)cc2)c(=O)n(-c2ccc(Cl)cc2)c2nc(C(F)(F)F)ccc12 [Example 42] | 15 | 480 | 8.38 | –
18 | Nc1ccc(-c2c(N)c3ccc(C(F)(F)F)nc3n(-c3ccc(Cl)cc3)c2=O)cc1 [Example 43] | 22 | 480 | – | –
19 | Cn1cc(-c2c(N)c3ccc(C(F)(F)F)nc3n(-c3ccc(Cl)cc3)c2=O)ccc1=O [Example 44] | 13.4 | 490 | 18.6 | 495
20 | Nc1c(-c2ccc3ncccc3c2)c(=O)n(-c2ccc(Cl)cc2)c2nc(C(F)(F)F)ccc12 [Example 45] | 14.8 | 190 | 6.37 | –
21 | Nc1c(-c2ccc3ncncc3c2)c(=O)n(-c2ccc(Cl)cc2)c2nc(C(F)(F)F)ccc12 [Example 46] | 15.1 | 180 | 20.2 | 251
22 | COCCn1ncc2cc(-c3c(N)c4ccc(C(F)(F)F)nc4n(-c4ccc(Cl)cc4)c3=O)ccc21 [Example 47] | 13.6 | 550 | 15.2 | 559
23 | CS(=O)(=O)CCn1ncc2cc(-c3c(N)c4ccc(C(F)(F)F)nc4n(-c4ccc(Cl)cc4)c3=O)ccc21 [Example 52] | 16.2 | 760 | – | –
24 | Nc1c(-c2ccc3c(c2)OCCO3)c(=O)n(-c2ccc(Cl)cc2)c2nc(C(F)(F)F)ccc12 [Example 53] | 14.4 | 240 | 21.2 | –
25 | Nc1c(-c2ccc3c(c2)NC(=O)CO3)c(=O)n(-c2ccc(Cl)cc2)c2nc(C(F)(F)F)ccc12 [Example 54] | 16.2 | 960 | – | –
26 | Nc1c(-c2ccc3nnccc3c2)c(=O)n(-c2ccc(Cl)cc2)c2nc(C(F)(F)F)ccc12 [Example 55] | 16.3 | 500 | 23.3 | –
27 | COc1cc(-c2c(N)c3ccc(C(F)(F)F)nc3n(-c3ccc(Cl)cc3)c2=O)ccn1 [Example 56] | 14.5 | 1110 | 17.8 | –
28 | Nc1c(-c2ccc3nccnc3n2)c(=O)n(-c2ccc(Cl)cc2)c2nc(C(F)(F)F)ccc12 [Example 67] | 18.1 | 750 | 16.3 | –
29 | Nc1c(-c2ccc3nonc3c2)c(=O)n(-c2ccc(Cl)cc2)c2nc(C(F)(F)F)ccc12 [Example 69] | 16.6 | – | – | 663
30 | Nc1c(-c2ccc3nccnc3c2)c(=O)n(-c2ccc(Br)cc2)c2nc(C(F)(F)F)ccc12 [Example 83] | 17.2 | – | 9.12 | –
31 | COc1cc(-c2c(N)c3ccc(C(F)(F)F)nc3n(-c3ccc(C)cc3)c2=O)ccn1 [Example 87] | 15.4 | – | 9.77 | –
